Laboratory results reported in PMC9954146, “Anti-Leukaemic Activity of Rilpivirine Is Mediated by Aurora A Kinase Inhibition” (Cancers, 2023).
Read-outs that look alike come from different tables or passages of the source.

How the values were obtained:
MEK1(h) = target: T1, MEK1(h) (Homo sapiens, UniProt Q02750); assay: Kinase panel; format: biochemical; conditions: read-out: % Residual Activity
T1 construct: purchased Eurofins (KinaseProfiler)
Experimental: (§1) Kinome-wide selectivity of rilpivirine was measured using the kinase screening and profiling service of Eurofins Scientific (Le bois l’Evêque 86600. Celle-Lévescault, France) and Ki values were determined using radioisotope-based assays by Reaction Biology Corporation (Malvern, PA, USA). The experimental details of Eurofin Scientific and Reaction Biology services for relevant assays are available at https://www.eurofinsdiscoveryservices.com/services/in-Vitro-assays/kinases/kinase-profiler (accessed on 7 July 2021) and https://www.reactionbiology.com (accessed on 7 July 2021), respectively. Ki values were estimated from the corresponding IC50 values using the Cheng–Prusoff equation [21] and the Km (ATP) of individual kinase was used for IC50 determination.

CDK1/cyclinB(h) = target: T2, CDK1/cyclinB(h) (Homo sapiens, UniProt P06493); assay: Kinase panel; format: biochemical; conditions: read-out: % Residual Activity
T2 construct: purchased Eurofins (KinaseProfiler)
Experimental: as §1

MKK3(h) = target: T3, MKK3(h) (Homo sapiens, UniProt P46734); assay: Kinase panel; format: biochemical; conditions: read-out: % Residual Activity
T3 construct: purchased Eurofins (KinaseProfiler)
Experimental: as §1

PDHK4(h) = target: T4, PDHK4(h) (Homo sapiens, UniProt Q16654); assay: Kinase panel; format: biochemical; conditions: read-out: % Residual Activity
T4 construct: purchased Eurofins (KinaseProfiler)
Experimental: as §1

DDR1(h) = target: T5, DDR1(h) (Homo sapiens, UniProt Q08345); assay: Kinase panel; format: biochemical; conditions: read-out: % Residual Activity
T5 construct: purchased Eurofins (KinaseProfiler)
Experimental: as §1

GSK3β(h) = target: T6, GSK3β(h) (Homo sapiens, UniProt P49841); assay: Kinase panel; format: biochemical; conditions: read-out: % Residual Activity
T6 construct: purchased Eurofins (KinaseProfiler)
Experimental: as §1

STK32B(h) = target: T7, STK32B(h) (Homo sapiens, UniProt Q9NY57); assay: Kinase panel; format: biochemical; conditions: read-out: % Residual Activity
T7 construct: purchased Eurofins (KinaseProfiler)
Experimental: as §1

SGK3(h) = target: T8, SGK3(h) (Homo sapiens, UniProt Q96BR1); assay: Kinase panel; format: biochemical; conditions: read-out: % Residual Activity
T8 construct: purchased Eurofins (KinaseProfiler)
Experimental: as §1

CDK17/cyclinY(h) = target: T9, CDK17/cyclinY(h) (Homo sapiens, UniProt Q00537); assay: Kinase panel; format: biochemical; conditions: read-out: % Residual Activity
T9 construct: purchased Eurofins (KinaseProfiler)
Experimental: as §1

AAK1(h) = target: T10, AAK1(h) (Homo sapiens, UniProt Q2M2I8); assay: Kinase panel; format: biochemical; conditions: read-out: % Residual Activity
T10 construct: purchased Eurofins (KinaseProfiler)
Experimental: as §1

PRKG2(h) = target: T11, PRKG2(h) (Homo sapiens, UniProt Q13237); assay: Kinase panel; format: biochemical; conditions: read-out: % Residual Activity
T11 construct: purchased Eurofins (KinaseProfiler)
Experimental: as §1

PAK2(h) = target: T12, PAK2(h) (Homo sapiens, UniProt Q13177); assay: Kinase panel; format: biochemical; conditions: read-out: % Residual Activity
T12 construct: purchased Eurofins (KinaseProfiler)
Experimental: as §1

GRK2(h) = target: T13, GRK2(h) (Homo sapiens, UniProt P25098); assay: Kinase panel; format: biochemical; conditions: read-out: % Residual Activity
T13 construct: purchased Eurofins (KinaseProfiler)
Experimental: as §1

MSSK1(h) = target: T14, MSSK1(h) (Homo sapiens, UniProt Q9UPE1); assay: Kinase panel; format: biochemical; conditions: read-out: % Residual Activity
T14 construct: purchased Eurofins (KinaseProfiler)
Experimental: as §1

SIK(h) = target: T15, SIK(h) (Homo sapiens, UniProt P57059); assay: Kinase panel; format: biochemical; conditions: read-out: % Residual Activity
T15 construct: purchased Eurofins (KinaseProfiler)
Experimental: as §1

BrSK1(h) = target: T16, BrSK1(h) (Homo sapiens, UniProt Q8TDC3); assay: Kinase panel; format: biochemical; conditions: read-out: % Residual Activity
T16 construct: purchased Eurofins (KinaseProfiler)
Experimental: as §1

NEK4(h) = target: T17, NEK4(h) (Homo sapiens, UniProt P51957); assay: Kinase panel; format: biochemical; conditions: read-out: % Residual Activity
T17 construct: purchased Eurofins (KinaseProfiler)
Experimental: as §1

Plk3(h) = target: T18, Plk3(h) (Homo sapiens, UniProt Q9H4B4); assay: Kinase panel; format: biochemical; conditions: read-out: % Residual Activity
T18 construct: purchased Eurofins (KinaseProfiler)
Experimental: as §1

STK25(h) = target: T19, STK25(h) (Homo sapiens, UniProt O00506); assay: Kinase panel; format: biochemical; conditions: read-out: % Residual Activity
T19 construct: purchased Eurofins (KinaseProfiler)
Experimental: as §1

Cdc7/cyclinB1(h) = target: T20, Cdc7/cyclinB1(h) (Homo sapiens, UniProt O00311); assay: Kinase panel; format: biochemical; conditions: read-out: % Residual Activity
T20 construct: purchased Eurofins (KinaseProfiler)
Experimental: as §1

ROCK-I(h) = target: T21, ROCK-I(h) (Homo sapiens, UniProt Q13464); assay: Kinase panel; format: biochemical; conditions: read-out: % Residual Activity
T21 construct: purchased Eurofins (KinaseProfiler)
Experimental: as §1

DCAMKL3(h) = target: T22, DCAMKL3(h) (Homo sapiens, UniProt Q9C098); assay: Kinase panel; format: biochemical; conditions: read-out: % Residual Activity
T22 construct: purchased Eurofins (KinaseProfiler)
Experimental: as §1

IKKα(h) = target: T23, IKKα(h) (Homo sapiens, UniProt O15111); assay: Kinase panel; format: biochemical; conditions: read-out: % Residual Activity
T23 construct: purchased Eurofins (KinaseProfiler)
Experimental: as §1

[1] = target: T24, PI3 Kinase (p110d/p85a)(h) (Homo sapiens, UniProt O00329); assay: Kinase panel; format: biochemical; conditions: read-out: % Residual Activity
T24 construct: purchased Eurofins (KinaseProfiler)
Experimental: as §1

NIM1(h) = target: T25, NIM1(h) (Homo sapiens, UniProt Q8IY84); assay: Kinase panel; format: biochemical; conditions: read-out: % Residual Activity
T25 construct: purchased Eurofins (KinaseProfiler)
Experimental: as §1

NEK6(h) = target: T26, NEK6(h) (Homo sapiens, UniProt Q9HC98); assay: Kinase panel; format: biochemical; conditions: read-out: % Residual Activity
T26 construct: purchased Eurofins (KinaseProfiler)
Experimental: as §1

CK1(y) = assay: Kinase panel; format: biochemical, yeast; conditions: 1 μM
Experimental: as §1

LYN = target: T27, LYN (Homo sapiens, UniProt P07948); assay: Radioisotope-based kinase assay (Ki); format: biochemical; conditions: apparent Ki from IC50 and Km (ATP)
T27 construct: purchased Reaction Biology Corporation (assay service)
Experimental: as §1

YES = target: T28, YES (Homo sapiens, UniProt P07947); assay: Radioisotope-based kinase assay (Ki); format: biochemical; conditions: apparent Ki from IC50 and Km (ATP)
T28 construct: purchased Reaction Biology Corporation (assay service)
Experimental: as §1

HL-60 cells = assay: Resazurin cell viability assay; format: cell-based; conditions: Homo sapiens, read-out: GI50
Experimental: Cell viability was determined by a resazurin-based assay as described previously. […] At the end of the treatment period, 20 µL of resazurin (0.1 mg/mL in PBS) was added per well and incubated for further 4 h.

K-562 cells = assay: Resazurin cell viability assay; format: cell-based, human; conditions: Homo sapiens
Experimental: Cell viability was determined by a resazurin-based assay as described previously. Briefly, 5 × 10^3 cells/well were seeded into 96-well plates (Corning Inc., Corning, NY, USA) in 180 µL of RPMI 1640 medium and incubated overnight at 37 °C with 5% CO2. Next day, cells were treated with rilpivirine after serially diluted (1:2 dilution for final concentrations ranging from 0.625 µM to 40 µM) or DMSO (0.1%) for specified time periods (24, 48, or 72 h). At the end of the treatment period, 20 µL of resazurin (0.1 mg/mL in PBS) was added per well and incubated for further 4 h. Fluorescence intensities were recorded at 570 nm (excitation)/585 nm (emission) using an EnVision® multilabel plate reader (PerkinElmer, MA, USA). Drug concentrations required for cell viability reduction by 50% (GI50) compared with untreated (DMSO vehicle-treated only) control were determined by a non-linear regression model using GraphPad Prism software version 7.02 (La Jolla, CA, USA).

T13 sequence (P25098 whole entry): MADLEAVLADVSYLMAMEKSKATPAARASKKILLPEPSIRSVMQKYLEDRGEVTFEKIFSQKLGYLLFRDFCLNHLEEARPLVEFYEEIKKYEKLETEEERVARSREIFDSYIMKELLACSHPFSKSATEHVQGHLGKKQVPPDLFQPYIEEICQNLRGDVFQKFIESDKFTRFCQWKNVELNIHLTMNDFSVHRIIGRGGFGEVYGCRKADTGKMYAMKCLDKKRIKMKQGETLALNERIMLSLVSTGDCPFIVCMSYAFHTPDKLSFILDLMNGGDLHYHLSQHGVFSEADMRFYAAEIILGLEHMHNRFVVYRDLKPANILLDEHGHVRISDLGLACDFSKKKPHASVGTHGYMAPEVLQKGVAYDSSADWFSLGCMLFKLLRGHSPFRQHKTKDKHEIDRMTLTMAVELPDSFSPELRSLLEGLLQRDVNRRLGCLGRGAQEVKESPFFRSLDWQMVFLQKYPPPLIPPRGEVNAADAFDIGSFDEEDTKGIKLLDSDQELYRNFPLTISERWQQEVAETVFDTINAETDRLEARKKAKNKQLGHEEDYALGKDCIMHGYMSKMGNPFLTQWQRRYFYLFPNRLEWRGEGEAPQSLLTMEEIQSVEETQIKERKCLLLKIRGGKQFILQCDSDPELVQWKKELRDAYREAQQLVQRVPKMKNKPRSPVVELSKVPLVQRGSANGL
T4 sequence (Q16654 whole entry): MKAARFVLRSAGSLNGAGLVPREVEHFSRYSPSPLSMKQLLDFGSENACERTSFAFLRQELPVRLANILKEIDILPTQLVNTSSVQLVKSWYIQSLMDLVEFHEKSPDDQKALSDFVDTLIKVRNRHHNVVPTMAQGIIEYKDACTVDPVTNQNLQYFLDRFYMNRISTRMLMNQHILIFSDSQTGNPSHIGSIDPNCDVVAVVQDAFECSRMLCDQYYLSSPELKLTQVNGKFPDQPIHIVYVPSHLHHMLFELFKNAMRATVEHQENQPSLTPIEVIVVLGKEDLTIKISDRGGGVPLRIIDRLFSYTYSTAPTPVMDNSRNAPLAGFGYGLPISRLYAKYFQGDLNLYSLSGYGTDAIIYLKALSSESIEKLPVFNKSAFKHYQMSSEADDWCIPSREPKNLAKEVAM
T22 sequence (Q9C098 whole entry): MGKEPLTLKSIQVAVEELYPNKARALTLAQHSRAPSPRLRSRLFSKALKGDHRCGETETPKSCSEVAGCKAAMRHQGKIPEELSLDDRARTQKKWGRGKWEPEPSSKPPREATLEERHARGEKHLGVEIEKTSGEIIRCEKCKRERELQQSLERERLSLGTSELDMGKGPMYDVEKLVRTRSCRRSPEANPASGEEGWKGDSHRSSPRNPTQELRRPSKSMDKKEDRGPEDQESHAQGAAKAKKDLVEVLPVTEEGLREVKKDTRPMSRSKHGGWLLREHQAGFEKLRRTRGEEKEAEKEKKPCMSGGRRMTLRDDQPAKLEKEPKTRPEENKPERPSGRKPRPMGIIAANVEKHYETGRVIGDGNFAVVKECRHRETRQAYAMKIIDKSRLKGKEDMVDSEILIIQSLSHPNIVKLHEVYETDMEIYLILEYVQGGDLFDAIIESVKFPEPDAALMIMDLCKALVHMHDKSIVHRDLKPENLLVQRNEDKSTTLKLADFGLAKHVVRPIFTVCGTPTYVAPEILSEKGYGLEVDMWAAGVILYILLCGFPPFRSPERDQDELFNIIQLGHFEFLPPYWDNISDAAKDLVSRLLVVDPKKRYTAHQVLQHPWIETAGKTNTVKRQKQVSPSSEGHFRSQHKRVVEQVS
T5 sequence (Q08345 19-913): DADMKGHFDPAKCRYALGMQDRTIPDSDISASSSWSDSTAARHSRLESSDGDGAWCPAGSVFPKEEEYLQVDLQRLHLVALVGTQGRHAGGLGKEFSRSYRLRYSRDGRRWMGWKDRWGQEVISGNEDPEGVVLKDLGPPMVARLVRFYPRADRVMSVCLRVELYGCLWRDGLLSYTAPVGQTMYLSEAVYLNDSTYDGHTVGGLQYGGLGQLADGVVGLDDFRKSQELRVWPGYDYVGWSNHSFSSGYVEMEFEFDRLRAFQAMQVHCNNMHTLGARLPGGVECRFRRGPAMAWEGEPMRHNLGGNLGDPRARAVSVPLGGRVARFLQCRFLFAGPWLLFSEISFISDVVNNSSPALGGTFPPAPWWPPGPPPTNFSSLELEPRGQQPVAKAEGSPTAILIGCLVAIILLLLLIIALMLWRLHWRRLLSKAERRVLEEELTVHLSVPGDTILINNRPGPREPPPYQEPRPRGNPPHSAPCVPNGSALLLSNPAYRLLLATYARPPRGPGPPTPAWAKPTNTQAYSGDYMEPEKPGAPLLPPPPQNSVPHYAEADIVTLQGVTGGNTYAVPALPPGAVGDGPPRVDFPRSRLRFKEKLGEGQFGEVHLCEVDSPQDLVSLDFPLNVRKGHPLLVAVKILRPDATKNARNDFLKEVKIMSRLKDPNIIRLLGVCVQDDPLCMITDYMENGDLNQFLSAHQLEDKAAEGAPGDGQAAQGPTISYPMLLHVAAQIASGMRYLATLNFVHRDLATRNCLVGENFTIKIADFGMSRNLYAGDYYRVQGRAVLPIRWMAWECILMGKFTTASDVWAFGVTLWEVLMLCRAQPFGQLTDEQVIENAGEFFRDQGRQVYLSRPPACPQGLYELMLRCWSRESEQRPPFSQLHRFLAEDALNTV
T3 sequence (P46734 whole entry): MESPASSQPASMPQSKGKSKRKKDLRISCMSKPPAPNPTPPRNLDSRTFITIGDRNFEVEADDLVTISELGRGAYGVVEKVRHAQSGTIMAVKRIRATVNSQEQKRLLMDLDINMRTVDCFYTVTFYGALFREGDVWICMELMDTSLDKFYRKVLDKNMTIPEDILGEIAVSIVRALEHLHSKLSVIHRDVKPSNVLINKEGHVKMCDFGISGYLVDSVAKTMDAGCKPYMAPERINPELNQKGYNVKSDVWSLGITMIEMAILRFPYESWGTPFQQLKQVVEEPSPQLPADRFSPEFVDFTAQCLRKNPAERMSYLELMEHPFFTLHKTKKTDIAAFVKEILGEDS
T28 sequence (P07947 whole entry): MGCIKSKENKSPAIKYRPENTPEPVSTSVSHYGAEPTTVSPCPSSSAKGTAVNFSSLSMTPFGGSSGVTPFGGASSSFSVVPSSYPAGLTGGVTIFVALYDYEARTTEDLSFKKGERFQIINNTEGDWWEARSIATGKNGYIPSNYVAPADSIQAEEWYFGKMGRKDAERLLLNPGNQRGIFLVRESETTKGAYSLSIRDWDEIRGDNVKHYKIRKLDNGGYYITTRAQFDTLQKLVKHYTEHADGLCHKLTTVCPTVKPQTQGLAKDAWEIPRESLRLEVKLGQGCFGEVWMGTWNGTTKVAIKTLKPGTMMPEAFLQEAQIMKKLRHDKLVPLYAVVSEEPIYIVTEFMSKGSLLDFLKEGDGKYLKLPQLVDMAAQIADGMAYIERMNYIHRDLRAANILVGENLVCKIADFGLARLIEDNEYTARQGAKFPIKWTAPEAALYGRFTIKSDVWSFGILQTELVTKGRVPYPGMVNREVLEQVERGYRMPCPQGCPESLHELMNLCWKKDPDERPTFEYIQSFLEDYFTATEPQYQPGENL
T7 sequence (Q9NY57 whole entry): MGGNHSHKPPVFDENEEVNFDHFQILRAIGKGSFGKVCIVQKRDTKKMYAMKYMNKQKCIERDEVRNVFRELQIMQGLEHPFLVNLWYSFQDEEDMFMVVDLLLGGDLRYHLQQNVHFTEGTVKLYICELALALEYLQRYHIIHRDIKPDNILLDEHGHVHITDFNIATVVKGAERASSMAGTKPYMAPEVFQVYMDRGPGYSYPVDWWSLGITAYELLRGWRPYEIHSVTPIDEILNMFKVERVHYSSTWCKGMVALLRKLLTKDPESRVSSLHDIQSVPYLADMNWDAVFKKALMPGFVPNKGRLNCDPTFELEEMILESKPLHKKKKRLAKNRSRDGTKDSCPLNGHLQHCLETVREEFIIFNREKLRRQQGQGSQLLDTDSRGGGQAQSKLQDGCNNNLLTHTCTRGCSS
T12 sequence (Q13177 whole entry): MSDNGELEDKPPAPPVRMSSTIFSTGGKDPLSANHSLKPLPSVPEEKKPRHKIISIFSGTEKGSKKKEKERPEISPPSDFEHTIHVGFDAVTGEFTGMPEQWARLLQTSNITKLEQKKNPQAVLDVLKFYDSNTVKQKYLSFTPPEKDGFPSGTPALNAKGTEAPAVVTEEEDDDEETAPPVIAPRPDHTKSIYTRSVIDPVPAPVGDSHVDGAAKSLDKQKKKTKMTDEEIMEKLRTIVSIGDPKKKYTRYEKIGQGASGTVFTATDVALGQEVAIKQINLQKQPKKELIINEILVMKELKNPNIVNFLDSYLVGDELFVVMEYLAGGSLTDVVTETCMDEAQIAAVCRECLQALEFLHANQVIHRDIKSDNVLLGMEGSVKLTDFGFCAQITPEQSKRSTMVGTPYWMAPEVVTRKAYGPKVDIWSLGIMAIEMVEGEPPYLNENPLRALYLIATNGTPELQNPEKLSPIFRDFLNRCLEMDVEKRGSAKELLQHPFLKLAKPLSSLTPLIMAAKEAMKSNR
T27 sequence (P07948 whole entry): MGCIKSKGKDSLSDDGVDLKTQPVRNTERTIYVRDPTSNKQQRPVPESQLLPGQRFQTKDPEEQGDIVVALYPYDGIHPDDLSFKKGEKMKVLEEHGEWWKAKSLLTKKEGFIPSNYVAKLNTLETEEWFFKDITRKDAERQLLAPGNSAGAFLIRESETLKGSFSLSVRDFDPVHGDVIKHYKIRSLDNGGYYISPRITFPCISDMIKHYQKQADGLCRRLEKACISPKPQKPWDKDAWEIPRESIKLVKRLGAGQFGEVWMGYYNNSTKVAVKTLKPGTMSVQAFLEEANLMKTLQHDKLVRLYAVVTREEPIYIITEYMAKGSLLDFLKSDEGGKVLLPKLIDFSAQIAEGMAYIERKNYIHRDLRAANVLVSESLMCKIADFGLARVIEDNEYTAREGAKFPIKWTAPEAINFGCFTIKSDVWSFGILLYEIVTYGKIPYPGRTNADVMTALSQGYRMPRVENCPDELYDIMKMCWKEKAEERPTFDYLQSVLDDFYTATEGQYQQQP

Q: Cc1cc(/C=C/C#N)cc(C)c1Nc1ccnc(Nc2ccc(C#N)cc2)n1 [rilpivirine, (E)-4-((4-((4-(2-cyanoethenyl)-2,6-dimethylphenyl)amino)pyrimidin-2-yl)amino)benzonitrile] was tested. Which remaining activity at 1 µM (MEK1(h)) did it give?
A: 101%

Q: And the remaining activity at 1 µM (CDK1/cyclinB(h))?
A: 105%

Q: And the remaining activity at 1 µM (MKK3(h))?
A: 111%

Q: What about the remaining activity at 1 µM (PDHK4(h)) of the same molecule?
A: 94%

Q: And the remaining activity at 1 µM (DDR1(h))?
A: 46%

Q: And the remaining activity at 1 µM (GSK3β(h))?
A: 84%

Q: What about the remaining activity at 1 µM (STK32B(h)) of the same molecule?
A: 99%

Q: And the remaining activity at 1 µM (SGK3(h))?
A: 99%

Q: And the remaining activity at 1 µM (CDK17/cyclinY(h))?
A: 78%

Q: What about the remaining activity at 1 µM (AAK1(h)) of the same molecule?
A: 87%

Q: And the remaining activity at 1 µM (PRKG2(h))?
A: 92%

Q: What about the remaining activity at 1 µM (PAK2(h)) of the same molecule?
A: 89%

Q: And the remaining activity at 1 µM (GRK2(h))?
A: 81%

Q: And the remaining activity at 1 µM (MSSK1(h))?
A: 84%

Q: And the remaining activity at 1 µM (SIK(h))?
A: 66%

Q: What about the remaining activity at 1 µM (BrSK1(h)) of the same molecule?
A: 84%

Q: What about the remaining activity at 1 µM (NEK4(h)) of the same molecule?
A: 97%

Q: What about the remaining activity at 1 µM (Plk3(h)) of the same molecule?
A: 99%

Q: What about the remaining activity at 1 µM (STK25(h)) of the same molecule?
A: 95%

Q: What about the remaining activity at 1 µM (Cdc7/cyclinB1(h)) of the same molecule?
A: 93%

Q: And the remaining activity at 1 µM (ROCK-I(h))?
A: 95%

Q: What about the remaining activity at 1 µM (DCAMKL3(h)) of the same molecule?
A: 95%

Q: What about the remaining activity at 1 µM (IKKα(h)) of the same molecule?
A: 85%

Q: And the remaining activity at 1 µM [1]?
A: 89%

Q: What about the remaining activity at 1 µM (NIM1(h)) of the same molecule?
A: 88%

Q: And the remaining activity at 1 µM (NEK6(h))?
A: 94%

Q: And the “% Residual Activity” value (CK1(y))?
A: 92%

Q: And the Ki (LYN)?
A: 0.93 µM

Q: And the Ki (YES)?
A: 1.57 µM

Q: What about the GI50 (HL-60 cells; HL-60, 24 h) of the same molecule?
A: 9.16 ± 1.05 µM

Q: And the GI50 (HL-60 cells; HL-60, 48 h)?
A: 6.26 ± 0.15 µM

Q: And the GI50 (HL-60 cells; HL-60, 72 h)?
A: 4.12 ± 0.18 µM

Q: And the GI50 (K-562 cells; K562, 24 h)?
A: 12.4 ± 2.16 µM

Q: What about the GI50 (K-562 cells; K562, 48 h) of the same molecule?
A: 8.43 ± 0.37 µM

Q: What about the GI50 (K-562 cells; K562, 72 h) of the same molecule?
A: 7.36 ± 0.24 µM
